This passage reports IC50 results from patent publication US20260184687A1, “DIHYDROINDENE DERIVATIVES AS MALT1 INHIBITORS” (C4X Discovery Limited, priority 2022, published 2026).

Where a name gives a salt, the structure may show the parent alone.

The subject of experiment [1] is IL-2 release from stimulated Jurkat cells. Nature of the experiment: Human IL-2 Release Phenotypic Assay (Assay 3). It counts as cell-based. To be noted: Jurkat cells (clone E6-1), 200 ng/mL PMA + 300 ng/mL ionomycin, IL-2 by ELISA. The gist of the method: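 Jurkat E6-1 cells in RPMI1640/10% FBS were seeded at 50 000 cells/well and incubated overnight at 37° C. Half-log compound dilutions (0.5% final DMSO) were added for 30 min, then cells were stimulated with 200 ng/mL PMA + 300 ng/mL ionomycin for 48 h. IC50 came from a 4-parameter non-linear regression fit.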

In experiment [2] the target is T1, FL hMALT1 enzyme (Homo sapiens, UniProt Q9UDY8).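 Note: Cell-free protease assay: enzyme preincubated with compound 30 min at room temperature, then cleavage of fluorogenic Ac-LVSR-AMC substrate (100 µM) tracked by fluorescence (ex 360/em 460 nm).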
T1 sequence (Q9UDY8 1-824): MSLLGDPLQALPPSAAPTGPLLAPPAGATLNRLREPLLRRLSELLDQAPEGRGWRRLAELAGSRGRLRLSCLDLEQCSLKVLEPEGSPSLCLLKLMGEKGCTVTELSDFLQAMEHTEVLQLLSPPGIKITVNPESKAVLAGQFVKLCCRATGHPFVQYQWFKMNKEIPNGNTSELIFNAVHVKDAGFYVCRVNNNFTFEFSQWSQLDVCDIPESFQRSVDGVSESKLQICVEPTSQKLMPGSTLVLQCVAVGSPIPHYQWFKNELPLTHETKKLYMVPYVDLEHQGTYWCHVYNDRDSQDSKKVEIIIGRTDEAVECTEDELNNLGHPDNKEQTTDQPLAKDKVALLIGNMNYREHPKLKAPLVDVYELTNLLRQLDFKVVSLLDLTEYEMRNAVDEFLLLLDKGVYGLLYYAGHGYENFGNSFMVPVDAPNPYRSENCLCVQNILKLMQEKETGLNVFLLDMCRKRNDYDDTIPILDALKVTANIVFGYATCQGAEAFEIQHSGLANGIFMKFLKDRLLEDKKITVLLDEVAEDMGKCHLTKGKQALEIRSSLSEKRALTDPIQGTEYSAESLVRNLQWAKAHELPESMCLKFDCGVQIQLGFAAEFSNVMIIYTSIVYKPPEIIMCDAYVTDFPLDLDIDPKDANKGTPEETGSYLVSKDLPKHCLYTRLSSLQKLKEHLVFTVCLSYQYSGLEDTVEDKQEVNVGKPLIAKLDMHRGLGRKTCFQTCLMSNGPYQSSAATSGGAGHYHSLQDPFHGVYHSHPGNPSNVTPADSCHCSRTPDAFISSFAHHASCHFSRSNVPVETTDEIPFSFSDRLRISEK
Nature of the experiment: biochemical.

Experiment [3] concerns the target MALT1-GS-Ub (6-His-hMALT-1 residues 339-715 fused to ubiquitin) (Homo sapiens, UniProt Q9UDY8). Nature of the experiment: biochemical.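 Note: in vitro MALT1 protease assay: enzyme preincubated with compound 30 min at room temperature, then cleavage of fluorogenic Ac-LVSR-AMC substrate (100 µM) followed by fluorescence every 15 min.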

Chain of MALT1-GS-Ub (6-His-hMALT-1 residues 339-715 fused to ubiquitin) (Q9UDY8 with tags, fused parts or gaps limits assumed): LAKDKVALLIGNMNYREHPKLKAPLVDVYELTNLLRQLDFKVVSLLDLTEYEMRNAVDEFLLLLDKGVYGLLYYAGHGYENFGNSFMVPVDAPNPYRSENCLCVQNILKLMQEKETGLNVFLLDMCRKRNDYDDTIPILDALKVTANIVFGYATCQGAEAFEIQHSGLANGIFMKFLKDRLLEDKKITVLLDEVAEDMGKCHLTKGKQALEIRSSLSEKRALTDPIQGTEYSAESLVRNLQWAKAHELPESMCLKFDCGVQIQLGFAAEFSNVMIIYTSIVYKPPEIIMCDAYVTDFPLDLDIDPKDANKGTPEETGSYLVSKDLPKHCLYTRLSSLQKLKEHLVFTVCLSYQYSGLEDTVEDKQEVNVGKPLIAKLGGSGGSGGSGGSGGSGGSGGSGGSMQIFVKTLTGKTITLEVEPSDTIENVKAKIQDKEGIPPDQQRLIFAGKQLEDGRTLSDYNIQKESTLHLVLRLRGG

On to `CN(C(=O)CN1CC(=O)NC1=O)[C@@H](c1ccc(NC2Cc3ccccc3C2(C)C)cc1)C(F)(F)F` (single isomer, unassigned) [Example 66], for which the values for the IC50 in experiment [1] (48 hours), in experiment [2] and in experiment [3] were 590 nM, 20 nM and 220 nM, respectively.
Taken in the same sequence, the figures for `CN(C(=O)N1CCS(=O)(=O)CC1)[C@@H](c1ccc(NC2Cc3ccccc3C2(C)C)cc1)C(F)(F)F` (single isomer, unassigned) [Example 14] were 320 nM, 110 nM and 220 nM.
As to `CN(C(=O)C1CCS(=O)(=O)CC1)[C@@H](c1ccc(NC2Cc3ccccc3C2(C)C)cc1)C(F)(F)F` (single isomer, unassigned) [Example 1], the IC50 in experiment [1] (Homo sapiens, Jurkat, 48 h) is 430 nM; in experiment [2], 7 nM; in experiment [3], 140 nM.
For `CN(C(=O)c1cocn1)[C@@H](c1ccc(NC2Cc3ccccc3C2(C)C)cc1)C(F)(F)F` (single isomer, unassigned) [Example 26], the IC50 in experiment [1] (48 hours) amounted to 910 nM; in experiment [2], 700 nM; in experiment [3], 360 nM.
Taken in the same sequence, the figures for `CC(=O)NCCC(=O)N(C)[C@@H](c1ccc(NC2Cc3ccccc3C2(C)C)cc1)C(F)(F)F` (single isomer, unassigned) [Example 24] were 870 nM, 89 nM and 160 nM.
With `CN(C(=O)OC1CNC1)[C@@H](c1ccc(NC2Cc3ccccc3C2(C)C)cc1)C(F)(F)F` (stereo partly drawn) [Example 60, Azetidin-3-yl ((1S)-1-(4-((1,1-dimethyl-2,3-dihydro-1H-inden-2-ylamino)phenyl)-2,2,2-trifluoroethyl)(methyl)carbamate Hydrochloride], the 50% inhibitory concentration (IC50) in experiment [1] (Homo sapiens, Jurkat, 48 h) is 1100 nM; in experiment [2], 53 nM; in experiment [3], 210 nM.
For the compound `CN([C@@H](c1ccc(NC2Cc3ccccc3C2(C)C)cc1)C(F)(F)F)S(=O)(=O)C1CC1` (single isomer, unassigned) [Example 80], the IC50 in experiment [1] (48 hours) was 2240 nM; in experiment [2], 210 nM; in experiment [3], 270 nM.
Taken in the same sequence, the figures for `COCC(=O)N(C)[C@@H](c1ccc(NC2Cc3ccccc3C2(C)C)cc1)C(F)(F)F` (single isomer, unassigned) [Example 29] were 690 nM, 14 nM and 160 nM.
Consider `CN(C(=O)c1cocn1)[C@@H](c1ccc(NC2Cc3ccccc3C2(C)C)cc1)C(F)(F)F` (single isomer, unassigned) [Example 27], for which the IC50 in experiment [1] (48 hours) was determined as 400 nM; in experiment [2], 180 nM; in experiment [3], 190 nM.
Turning to `COCCC(=O)N(C)[C@@H](c1ccc(NC2Cc3ccccc3C2(C)C)cc1)C(F)(F)F` (single isomer, unassigned) [Example 33], the IC50 in experiment [1] (48 hours) came to 2480 nM; in experiment [2] it was 260 nM; in experiment [3], 360 nM.
Taken in the same sequence, the figures for `CN(C(=O)c1cc[nH]c(=O)c1)[C@@H](c1ccc(NC2Cc3ccccc3C2(C)C)cc1)C(F)(F)F` (single isomer, unassigned) [Example 21] were 260 nM, 62 nM and 200 nM.
Taken in the same sequence, the figures for `CN(C(=O)C1CCS(=O)(=O)CC1)[C@@H](c1ccc(NC2Cc3cc(Cl)ccc3C2(C)C)cc1)C(F)(F)F` (single isomer, unassigned) [Example 152] were 360 nM, 420 nM and 260 nM.
Taken in the same sequence, the figures for `CC(=O)N1CC(C)(C(=O)N(C)[C@@H](c2ccc(NC3Cc4ccccc4C3(C)C)cc2)C(F)(F)F)C1` (single isomer, unassigned) [Example 42] were 1600 nM, 35 nM and 160 nM.
`CC(=O)NCC(=O)N(C)[C@@H](c1ccc(NC2Cc3ccccc3C2(C)C)cc1)C(F)(F)F` (single isomer, unassigned) [Example 40]: the IC50 worked out at 1350 nM in experiment [1] (48 hours), 77 nM in experiment [2] and 230 nM in experiment [3].
Taken in the same sequence, the figures for `CN1CC(C(=O)N(C)C(c2ccc(NC3Cc4ccccc4C3(C)C)nc2)C(F)(F)F)C1` (single isomer, unassigned) [Example 93, N-(1-(6-((1,1-Dimethyl-2,3-dihydro-1H-inden-2-yl)amino)pyridin-3-yl)-2,2,2-trifluoroethyl)-N,1-dimethylazetidine-3-carboxamide] were 3040 nM, 690 nM and 1000 nM.
Taken in the same sequence, the figures for `CN(C(=O)C1CCS(=O)(=O)CC1)[C@@H](c1ccc(NC2Cc3ccc(Cl)cc3C2)cc1)C(F)(F)F` (single isomer, unassigned) [Example 55] were 4570 nM, 220 nM and 520 nM.
As to `CC1c2ccccc2C(C)C1Nc1ccc([C@H](N(C)C(=O)C2CCS(=O)(=O)CC2)C(F)(F)F)cc1` (stereo partly drawn) [Example 38, N-((1S)-1-(4-((1,3-Dimethyl-2,3-dihydro-1H-inden-2-yl)amino)phenyl)-2,2,2-trifluoroethyl)-N-methyltetrahydro-2H-thiopyran-4-carboxamide 1,1-dioxide], the IC50 in experiment [1] (Homo sapiens, Jurkat, 48 h) stood at 560 nM; in experiment [2] it was 16 nM; in experiment [3] it was 210 nM.
With `CN(C(=O)C1CN(S(C)(=O)=O)C1)[C@@H](c1ccc(NC2Cc3ccccc3C2(C)C)cc1)C(F)(F)F` (single isomer, unassigned) [Example 68], the figures for the IC50 in experiment [1] (48 hours), in experiment [2] and in experiment [3] were 120 nM, 15 nM and 190 nM, respectively.
Consider `COC1c2ccccc2CC1Nc1ccc([C@H](N(C)C(=O)C2CCS(=O)(=O)CC2)C(F)(F)F)cc1` (single isomer, unassigned) [Example 10], for which the IC50 stood at 1550 nM in experiment [1] (Homo sapiens, Jurkat, 48 h); 120 nM in experiment [2]; 540 nM in experiment [3].
For the compound `CN(C(=O)CCO)[C@@H](c1ccc(NC2Cc3ccccc3C2(C)C)cc1)C(F)(F)F` (single isomer, unassigned) [Example 35], the IC50 was 3760 nM in experiment [1] (48 hours), 27 nM in experiment [2] and 290 nM in experiment [3].
Regarding `CN(C(=O)CCO)[C@@H](c1ccc(NC2Cc3ccccc3C2(C)C)cc1)C(F)(F)F` (single isomer, unassigned) [Example 34], the IC50 in experiment [1] (Homo sapiens, Jurkat, 48 h) was 4980 nM; in experiment [2], 85 nM; in experiment [3], 170 nM.
Taken in the same sequence, the figures for `CN(C(=O)C1CCS(=O)(=O)CC1)[C@@H](c1ccc(NC2Cc3ccc(Cl)cc3C2(C)C)cc1)C(F)(F)F` (single isomer, unassigned) [Example 150] were 100 nM, 66 nM and 150 nM.
Taken in the same sequence, the figures for `CN1CC(C(=O)N(C)C(c2ccc(NC3Cc4ccccc4C3(C)C)cn2)C(F)(F)F)C1` (single isomer, unassigned) [Example 92, N-(1-(5-((1,1-Dimethyl-2,3-dihydro-1H-inden-2-yl)amino)pyridin-2-yl)-2,2,2-trifluoroethyl)-N,1-dimethylazetidine-3-carboxamide] were 870 nM, 280 nM and 500 nM.
For the compound `CN1CC(C(=O)N(C)[C@@H](c2ccc(NC3Cc4ccccc4C3(C)C)cc2)C(F)(F)F)C1` (single isomer, unassigned) [Example 76], the IC50 in experiment [1] (48 hours) stood at 500 nM; in experiment [2] it was 36 nM; in experiment [3] it was 220 nM.
For the compound `CN(C(=O)C1CNC1)C(c1ccc(NC2Cc3ccccc3C2(C)C)nc1)C(F)(F)F` (single isomer, unassigned) [Example 87, N-(1-(6-((1,1-Dimethyl-2,3-dihydro-1H-inden-2-yl)amino)pyridin-3-yl)-2,2,2-trifluoroethyl)-N-methylazetidine-3-carboxamide], the IC50 was found to be 1130 nM in experiment [1] (Homo sapiens, Jurkat, 48 h); 470 nM in experiment [2]; 1220 nM in experiment [3].
On to `CNS(=O)(=O)CCCC(=O)N(C)[C@@H](c1ccc(NC2Cc3ccccc3C2(C)C)cc1)C(F)(F)F` (single isomer, unassigned) [Example 65], for which the results for the IC50 in experiment [1] (48 hours), in experiment [2] and in experiment [3] were 2240 nM, 45 nM and 190 nM, respectively.
Taken in the same sequence, the figures for `CC(=O)N1CC(C(=O)N(C)[C@@H](c2ccc(NC3Cc4ccccc4C3(C)C)cc2)C(F)(F)F)C1` (single isomer, unassigned) [Example 7] were 820 nM, 68 nM and 190 nM.
